The values that follow come from patent publication US9981940B2, “Aryl sulfide derivatives and aryl sulfoxide derivatives as acaricides and insecticides” (BAYER CROPSCIENCE AKTIENGESELLSCHAFT, priority 2013, dated 2018).

Series [1] concerns Boophilus microplus. The experiment in a line: Boophilus microplus injection test (BOOPMI Inj). The conditions noted are these: application rate of 20 μg/animal, assessed after 7 days by laying of fertile eggs. It is filed as in vivo. How it is done: Use Examples Boophilus microplus Injection Test (BOOPMI Inj) • Solvent: dimethyl sulphoxide
To prepare an appropriate active ingredient formulation, 10 mg of active ingredient are mixed with 0.5 ml of solvent and the concentrate is diluted with solvent to the desired concentration.
1 μl of the active ingredient solution is injected into the abdomen of 5 engorged adult female cattle ticks (Boophilus microplus). The animals are transferred into dishes and kept in a climate-controlled room.
The efficacy is assessed after 7 days by laying of fertile eggs. Eggs which are not visibly fertile are stored in a climate-controlled cabinet until the larvae hatch after about 42 days.
An efficacy of 100% means that none of the ticks has laid any fertile eggs; 0% means that all the eggs are fertile.

Series [2] deals with Tetranychus urticae. Nature of the series: Tetranychus urticae spray test, OP-resistant (TETRUR). It is filed as in vivo. The note with it: application rate of 500 g/ha, after 6 days; for pest or weed control at 500 g/ha: Tetranychus urticae, 144 h, read-out: efficacy. The method, boiled down:
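Mortality as % efficacy (0% = no mites killed) read 6 days after spraying. Formulation: active ingredient in acetone/dimethylformamide plus emulsifier, diluted with emulsifier-containing water, applied to Phaseolus vulgaris leaf discs carrying every life stage of OP-resistant spider mites.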

Series [3] is described as follows: log P by HPLC (OECD Guideline 117), method [a] acidic range. It is filed as physicochemical. The conditions noted are these: for logP[a]: HPLC, method [a] acidic range; for chromatographic logP: reversed-phase C18 HPLC column, acidic range. How it is done:
(§1) The log P values were determined analogously to OECD Guideline 117 (EC Directive 92/69/EEC) by HPLC (high-performance liquid chromatography) using reversed-phase columns (C 18), by the following methods:
[a] The LC-MS determination in the acidic range is effected at pH 2.7 with 0.1% aqueous formic acid and acetonitrile (contains 0.1% formic acid) as eluents; linear gradient from 10% acetonitrile to 95% acetonitrile.

Series [4] can be described thus: log P by HPLC (OECD Guideline 117), method [b] neutral range. It is filed as physicochemical. The conditions noted are these: HPLC; for logP[b]: method [b] neutral range; for chromatographic logP: reversed-phase C18 HPLC column, neutral range, pH 7.8. How it is done:
as §1
[b] The LC-MS determination in the neutral range is effected at pH 7.8 with 0.001 molar aqueous ammonium hydrogencarbonate solution and acetonitrile as eluents; linear gradient from 10% acetonitrile to 95% acetonitrile.

The mark [5] stands for this setting: pH 2.7, HPLC method [a], read-out: logP[a].
[6] abbreviates: pH 2.7, HPLC, pH 2.7, read-out: log P[a].

As for `COCc1nn(-c2cc([S+]([O-])CC(F)(F)F)c(C)cc2F)c(=O)n1C1CC1` (centres unmarked) [Example 45], the efficacy in series [1] and in series [2] was 100% throughout. Also, the “logP[a]” value in series [3] turned out to be 1.99. In addition, in series [4], the “logP[b]” value came out at 1.96.

Take `Cc1cc(F)c(-n2nnn(C)c2=O)cc1SCC(F)(F)F` [Example 302, 1-{2-Fluoro-4-methyl-5-[(2,2,2-trifluoroethyl)sulphanyl]phenyl}-4-methyl-1,4-dihydro-5H-tetrazol-5-one]: the efficacy in series [1] is on record as 100%. In series [2], the pest or weed control at 500 g/ha was found to be 100%. In addition, the chromatographic logP came to 2.89 in series [3] (setting [5]), 2.89 in series [3] (setting [6]) and 2.86 in series [4].

Turning to `Cn1c(C(F)(F)F)nn(-c2cc(SCC(F)(F)F)c(C#N)cc2F)c1=O` [Example 38], the efficacy in series [1] and in series [2] was 100% in each case. The “logP[a]” value in series [3] was 3.09. The “logP[b]” value in series [4] came out at 3.08.

Regarding `Cc1cc(F)c(-n2nc(C(F)(F)F)n(N)c2=O)cc1[S+]([O-])CC(F)(F)F` (centres unmarked) [Example 215], the efficacy in series [1] and in series [2] was 100% throughout. In series [3], the “logP[a]” value is 2.19. Moreover, in series [4], the “logP[b]” value is on record as 2.17.

Consider `CCn1c(OCC(F)(F)F)nn(-c2cc([S+]([O-])CC(F)(F)F)c(C)cc2F)c1=O` (centres unmarked) [Example 406], for which the efficacy in series [1] was determined as 100%; in series [2] it was 90%. For the same compound, in series [3], the “logP[a]” value worked out at 2.82. For the same compound, the “logP[b]” value in series [4] was 2.78.

For the compound `Cc1cc(F)c(-n2nc(OC(C)(C)C)n(C)c2=O)cc1SCC(F)(F)F` [Example 157], the efficacy in series [1] and in series [2] was 100% each time. The “logP[a]” value in series [3] came to 3.98. Moreover, the “logP[b]” value in series [4] is reported as 3.88.

For the compound `CCn1c(SC)nn(-c2cc([S+]([O-])CC(F)(F)F)c(C)cc2F)c1=O` (centres unmarked) [Example 270], the efficacy in series [1] and in series [2] was 100% each time. For the same compound, the “logP[a]” value in series [3] was found to be 2.39. Also, the “logP[b]” value in series [4] is listed as 2.33.

For the compound `Cc1cc(F)c(-n2nc(Br)n(C(C)C)c2=O)cc1[S+]([O-])CC(F)(F)F` (centres unmarked) [Example 442, 5-Bromo-2-{2-fluoro-4-methyl-5-[(2,2,2-trifluoroethyl)sulphinyl]phenyl}-4-isopropyl-2,4-dihydro-3H-1,2,4-triazol-3-one], the efficacy in series [1] is 100%. For the same compound, the pest or weed control at 500 g/ha in series [2] is 100%. In addition, the chromatographic logP in series [3] (setting [5]) amounted to 2.68; in series [3] (setting [6]) it was 2.68; in series [4] it was 2.62.

With `CSc1nn(-c2cc([S+]([O-])CC(F)(F)F)c(C)cc2F)c(=O)n1C1CC1` (centres unmarked) [Example 257], the efficacy in series [1] and in series [2] was 100% each time. In series [3], the “logP[a]” value was determined as 2.45. The “logP[b]” value in series [4] was 2.40.

As to `Cc1ccc(-n2nc(OCC(F)(F)F)n(C3CC3)c2=O)cc1SCC(F)(F)F` [Example 92], the efficacy in series [1] and in series [2] was 100% in each case. Also, in series [3], the “logP[a]” value is given as 4.29. The “logP[b]” value in series [4] came to 4.20.

Consider `Cc1cc(F)c(-n2nc([S+](C)[O-])n(C3CC3)c2=O)cc1[S+]([O-])CC(F)(F)F` (centres unmarked) [Example 231], for which the efficacy in series [1] and in series [2] was 100% each time. The “logP[a]” value in series [3] came out at 1.61. The “logP[b]” value in series [4] worked out at 1.58.

Turning to `Cc1cc(F)c(-n2nc(S(C)(=O)=O)n(C3CC3)c2=O)cc1[S+]([O-])CC(F)(F)F` (centres unmarked) [Example 228], the efficacy in series [1] is 100%; in series [2], 90%. In series [3], the “logP[a]” value was determined as 2.12. The “logP[b]” value in series [4] was 2.08.
